In PubChem BioAssay (NCI):
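GI50 is the concentration that inhibits growth by half. At the TGI there is no net growth.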

Columns and labels:
Assay in all cases: NCI tumour cell line growth inhibition, 384-well format
SR leukemia = test system: SR leukemia
NCI-H522 lung = test system: NCI-H522 lung
SF-295 CNS = test system: SF-295 CNS
MDA-MB-435 melanoma = test system: MDA-MB-435 melanoma
RPMI-8226 leukemia = test system: RPMI-8226 leukemia
K-562 leukemia = test system: K-562 leukemia
COLO 205 colon = test system: COLO 205 colon
A498 renal = test system: A498 renal
SNB-19 CNS = test system: SNB-19 CNS
SW-620 colon = test system: SW-620 colon
786-0 renal = test system: 786-0 renal
MALME-3M melanoma = test system: MALME-3M melanoma
HS 578T breast = test system: HS 578T breast
NCI-H322M lung = test system: NCI-H322M lung
ACHN renal = test system: ACHN renal
SF-539 CNS = test system: SF-539 CNS
A549 NSCLC = test system: A549 NSCLC
UO-31 renal = test system: UO-31 renal
MDA-MB-468 breast = test system: MDA-MB-468 breast
NCI-H460 NSCLC = test system: NCI-H460 NSCLC
TK-10 renal = test system: TK-10 renal
OVCAR-8 ovarian = test system: OVCAR-8 ovarian
U251 glioblastoma = test system: U251 glioblastoma
OVCAR-4 ovarian = test system: OVCAR-4 ovarian
PC-3 prostate = test system: PC-3 prostate
SF-268 CNS = test system: SF-268 CNS
MDA-MB-231 breast = test system: MDA-MB-231 breast
KM12 colon = test system: KM12 colon
HL-60(TB) leukemia = test system: HL-60(TB) leukemia

CC1(O)CC(c2nc(-c3ccc4ccc(-c5ccccc5)nc4c3)c3c(N)nccn23)C1 (stereo not drawn)
GI50 (SR leukemia): 10.2 µM | TGI (SR leukemia): 21.8 µM | GI50 (NCI-H522 lung): 5.74 µM | TGI (NCI-H522 lung): 19 µM | GI50 (SF-295 CNS): 12.9 µM | TGI (SF-295 CNS): 25.6 µM | GI50 (MDA-MB-435 melanoma): 7.98 µM | TGI (MDA-MB-435 melanoma): 20.8 µM | GI50 (RPMI-8226 leukemia): 1.32 µM | TGI (RPMI-8226 leukemia): 4.12 µM | GI50 (K-562 leukemia): 7.3 µM | TGI (K-562 leukemia): 20.5 µM | GI50 (COLO 205 colon): 0.209 µM | TGI (COLO 205 colon): 11.3 µM | GI50 (A498 renal): 6.67 µM | TGI (A498 renal): 19 µM | GI50 (SNB-19 CNS): 13 µM | TGI (SNB-19 CNS): 25.9 µM | GI50 (SW-620 colon): 3.85 µM | TGI (SW-620 colon): 17.9 µM | GI50 ([…]-0 renal): 12.5 µM | TGI (786-0 renal): 25.1 µM | GI50 (MALME-3M melanoma): 2.76 µM | TGI (MALME-3M melanoma): 12.3 µM | GI50 (HS 578T breast): 9.96 µM | TGI (HS 578T breast): 21.6 µM | GI50 (NCI-H322M lung): 4.22 µM | TGI (NCI-H322M lung): 17.4 µM | GI50 (ACHN renal): 5.3 µM | TGI (ACHN renal): 22.4 µM | GI50 (SF-539 CNS): 13 µM | TGI (SF-539 CNS): 25.8 µM | GI50 (A549 NSCLC): 10.3 µM | TGI (A549 NSCLC): 23.3 µM | GI50 (UO-31 renal): 6.8 µM | TGI (UO-31 renal): 20.5 µM | GI50 (MDA-MB-468 breast): 1.9 µM | TGI (MDA-MB-468 breast): 6.36 µM | GI50 (NCI-H460 NSCLC): 2.79 µM | TGI (NCI-H460 NSCLC): 15.5 µM | GI50 (TK-10 renal): 6.58 µM | TGI (TK-10 renal): 19.3 µM | GI50 (OVCAR-8 ovarian): 10.2 µM | TGI (OVCAR-8 ovarian): 22 µM | GI50 (U251 glioblastoma): 13 µM | TGI (U251 glioblastoma): 25.8 µM | GI50 (OVCAR-4 ovarian): 10.3 µM | TGI (OVCAR-4 ovarian): 22.5 µM | GI50 (PC-3 prostate): 10 µM | TGI (PC-3 prostate): 22.8 µM | GI50 (SF-268 CNS): 10.8 µM | TGI (SF-268 CNS): 22.9 µM | GI50 (MDA-MB-231 breast): 5.42 µM | TGI (MDA-MB-231 breast): 18.9 µM | GI50 (KM12 colon): 3.97 µM | TGI (KM12 colon): 13.8 µM | GI50 (HL-60(TB) leukemia): 0.0517 µM | TGI (HL-60(TB) leukemia): 1.61 µM
